Test results from ChEMBL document CHEMBL4184197 (Bioorg Med Chem, 2018).

What was measured:
[1] = target: Muscarinic acetylcholine receptor M3 (Homo sapiens) (UniProt P20309); test: Binding affinity to recombinant human muscarinic M3 receptor at 10 uM after 60 mins by scintillation counting analysis relative to control
[2] = target: Tumor necrosis factor receptor superfamily member 1A (Homo sapiens) (UniProt P19438); test: Binding affinity to recombinant human TNFalpha receptor at 10 uM after 120 mins by scintillation counting analysis relative to control
[3] = target: 5-hydroxytryptamine receptor 1A (Homo sapiens) (UniProt P08908); test: Binding affinity to recombinant human 5-HT1A receptor at 10 uM after 60 mins by scintillation counting analysis relative to control
[4] = target: Cannabinoid receptor 1 (Homo sapiens) (UniProt P21554); test: Binding affinity to recombinant human CB1 at 10 uM after 120 mins by scintillation counting analysis relative to control
Chain of Cannabinoid receptor 1 (Homo sapiens) (P21554 whole entry): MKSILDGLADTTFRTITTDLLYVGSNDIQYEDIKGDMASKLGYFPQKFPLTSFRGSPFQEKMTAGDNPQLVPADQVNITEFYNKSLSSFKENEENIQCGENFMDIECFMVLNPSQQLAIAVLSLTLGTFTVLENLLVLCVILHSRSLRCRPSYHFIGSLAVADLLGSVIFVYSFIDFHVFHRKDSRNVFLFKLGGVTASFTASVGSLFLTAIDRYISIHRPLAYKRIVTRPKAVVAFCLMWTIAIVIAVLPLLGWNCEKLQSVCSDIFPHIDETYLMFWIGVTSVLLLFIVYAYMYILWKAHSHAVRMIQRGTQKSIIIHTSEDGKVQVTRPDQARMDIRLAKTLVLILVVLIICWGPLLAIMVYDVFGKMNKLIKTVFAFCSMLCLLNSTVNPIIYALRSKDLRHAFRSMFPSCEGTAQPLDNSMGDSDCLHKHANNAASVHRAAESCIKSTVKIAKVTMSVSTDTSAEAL

Caspase-8 (Homo sapiens) = Caspase-8 (Homo sapiens) (UniProt Q14790); test: Binding affinity to recombinant human caspase 8 at 10 uM after 45 mins by fluorescence assay relative to control
Chain of Caspase-8 (Homo sapiens) (Q14790 217-374 limits assumed): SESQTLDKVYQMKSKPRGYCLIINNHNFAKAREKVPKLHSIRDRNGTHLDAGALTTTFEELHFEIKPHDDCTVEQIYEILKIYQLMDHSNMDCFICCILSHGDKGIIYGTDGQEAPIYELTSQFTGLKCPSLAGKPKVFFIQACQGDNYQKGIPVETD
Chain of Caspase-8 (Homo sapiens) (Q14790 385-479 limits assumed): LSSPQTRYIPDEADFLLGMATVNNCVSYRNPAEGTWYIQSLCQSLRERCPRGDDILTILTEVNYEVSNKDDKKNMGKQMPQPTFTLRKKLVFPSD

[5] = target: NAD-dependent protein deacetylase sirtuin-2 (Homo sapiens) (UniProt Q8IXJ6); test: Binding affinity to surtuin-2 (unknown origin) at 10 uM by relative to control
Chain of NAD-dependent protein deacetylase sirtuin-2 (Homo sapiens) (Q8IXJ6 whole entry): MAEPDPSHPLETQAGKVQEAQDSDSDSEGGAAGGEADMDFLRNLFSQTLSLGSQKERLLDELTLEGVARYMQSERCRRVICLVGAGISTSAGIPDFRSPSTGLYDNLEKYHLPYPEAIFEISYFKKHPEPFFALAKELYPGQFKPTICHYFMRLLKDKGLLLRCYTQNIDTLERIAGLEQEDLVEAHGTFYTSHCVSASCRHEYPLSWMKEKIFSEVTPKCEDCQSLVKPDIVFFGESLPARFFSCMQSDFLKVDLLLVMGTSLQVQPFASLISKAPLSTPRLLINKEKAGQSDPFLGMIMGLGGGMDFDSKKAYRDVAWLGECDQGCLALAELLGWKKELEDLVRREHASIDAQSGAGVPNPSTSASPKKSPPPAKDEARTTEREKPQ

[6] = target: cGMP-dependent 3',5'-cyclic phosphodiesterase (Homo sapiens) (UniProt O00408); test: Binding affinity to recombinant human PDE2A1 at 10 uM after 20 mins by scintillation counting analysis relative to control
[7] = target: Sodium-dependent serotonin transporter (Homo sapiens) (UniProt P31645); test: Binding affinity to 5-HT transporter (unknown origin) at 10 uM relative to control
[8] = system: Voltage-gated potassium channel; test: Binding affinity to voltage-gated potassium channel (unknown origin) at 10 uM relative to control; assay type: protein assay; conditions: human
Salmonella typhimurium [9] = test: Mutagenicity in Salmonella typhimurium TA98 in presence of rat liver S9 fraction by Ames test; assay type: toxicity, organism-based; conditions: salmonella enterica subsp. enterica serovar typhimurium
[10] = target: Disintegrin and metalloproteinase domain-containing protein 17 (Homo sapiens) (UniProt P78536); test: Binding affinity to recombinant human TACE at 10 uM after 5 mins by fluorescence assay relative to control
Chain of Disintegrin and metalloproteinase domain-containing protein 17 (Homo sapiens) (P78536 whole entry, the tested form may be a part): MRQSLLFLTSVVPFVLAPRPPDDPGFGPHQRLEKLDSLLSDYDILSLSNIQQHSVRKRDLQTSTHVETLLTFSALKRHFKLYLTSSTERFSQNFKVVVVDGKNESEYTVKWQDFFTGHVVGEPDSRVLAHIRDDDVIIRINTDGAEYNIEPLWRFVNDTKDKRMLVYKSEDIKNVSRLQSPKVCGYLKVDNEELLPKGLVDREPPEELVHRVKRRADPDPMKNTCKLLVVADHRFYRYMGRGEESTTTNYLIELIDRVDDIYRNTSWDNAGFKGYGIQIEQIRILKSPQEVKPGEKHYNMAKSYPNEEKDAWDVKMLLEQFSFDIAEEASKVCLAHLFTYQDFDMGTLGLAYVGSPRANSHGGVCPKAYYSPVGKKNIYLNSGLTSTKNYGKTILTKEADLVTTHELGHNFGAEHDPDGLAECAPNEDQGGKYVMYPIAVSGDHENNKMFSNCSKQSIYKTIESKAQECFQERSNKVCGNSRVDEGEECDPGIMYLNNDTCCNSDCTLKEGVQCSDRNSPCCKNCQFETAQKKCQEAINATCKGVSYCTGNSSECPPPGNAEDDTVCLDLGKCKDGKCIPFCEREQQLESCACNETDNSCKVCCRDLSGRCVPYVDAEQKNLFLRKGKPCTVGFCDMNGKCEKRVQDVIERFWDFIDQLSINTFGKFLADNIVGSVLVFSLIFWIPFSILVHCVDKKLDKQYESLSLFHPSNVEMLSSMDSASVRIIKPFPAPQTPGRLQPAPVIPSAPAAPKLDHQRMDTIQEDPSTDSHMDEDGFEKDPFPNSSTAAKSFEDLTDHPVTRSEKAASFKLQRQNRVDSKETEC

[11] = target: Interstitial collagenase (Homo sapiens) (UniProt P03956); test: Binding affinity to human MMP1 at 10 uM after 20 mins by fluorescence assay relative to control
[12] = target: Endothelin-1 receptor (Homo sapiens) (UniProt P25101); test: Binding affinity to recombinant human ETA receptor at 10 uM after 120 mins by scintillation counting analysis relative to control
[13] = target: Galanin receptor type 2 (Homo sapiens) (UniProt O43603); test: Binding affinity to recombinant human GAL2 receptor at 10 uM after 120 mins by scintillation counting analysis relative to control
[14] = target: Neurotensin receptor type 1 (Homo sapiens) (UniProt P30989); test: Binding affinity to recombinant human NT1 receptor at 10 uM after 60 mins by scintillation counting analysis relative to control
[15] = target: Neuropeptide Y receptor type 2 (Homo sapiens) (UniProt P49146); test: Binding affinity to human Y2 receptor at 10 uM after 60 mins by scintillation counting analysis relative to control
[16] = target: Beta-2 adrenergic receptor (Homo sapiens) (UniProt P07550); test: Binding affinity to recombinant human beta2 receptor at 10 uM after 120 mins by scintillation counting analysis relative to control
Chain of Beta-2 adrenergic receptor (Homo sapiens) (P07550 whole entry, looked up): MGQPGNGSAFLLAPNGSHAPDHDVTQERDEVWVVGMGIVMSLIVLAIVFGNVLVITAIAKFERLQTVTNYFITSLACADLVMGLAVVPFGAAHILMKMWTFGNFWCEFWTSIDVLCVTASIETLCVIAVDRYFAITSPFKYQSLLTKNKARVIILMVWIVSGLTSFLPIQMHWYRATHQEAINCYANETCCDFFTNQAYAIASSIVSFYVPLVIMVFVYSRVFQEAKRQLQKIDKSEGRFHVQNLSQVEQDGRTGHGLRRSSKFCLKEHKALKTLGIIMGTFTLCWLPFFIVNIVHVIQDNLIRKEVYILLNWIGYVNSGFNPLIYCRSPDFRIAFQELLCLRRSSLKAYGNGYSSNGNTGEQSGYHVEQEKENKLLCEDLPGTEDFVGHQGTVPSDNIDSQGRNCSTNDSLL

[17] = target: C-C chemokine receptor type 1 (Homo sapiens) (UniProt P32246); test: Binding affinity to recombinant human CCR1 receptor at 10 uM after 120 mins by scintillation counting analysis relative to control
Chain of C-C chemokine receptor type 1 (Homo sapiens) (P32246 whole entry): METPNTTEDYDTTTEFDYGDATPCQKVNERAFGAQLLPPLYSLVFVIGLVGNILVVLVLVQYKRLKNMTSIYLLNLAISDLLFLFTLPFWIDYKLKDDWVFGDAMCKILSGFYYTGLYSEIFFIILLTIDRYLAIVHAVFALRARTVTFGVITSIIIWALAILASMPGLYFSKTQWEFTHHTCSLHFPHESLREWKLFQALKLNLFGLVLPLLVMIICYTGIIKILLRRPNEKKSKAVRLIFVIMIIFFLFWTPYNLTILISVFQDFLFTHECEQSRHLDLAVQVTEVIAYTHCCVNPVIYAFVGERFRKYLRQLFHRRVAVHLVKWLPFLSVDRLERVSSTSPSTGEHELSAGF

Homo sapiens [18] = organism: Homo sapiens; test: Binding affinity to phencyclidine receptor (unknown origin) at 10 uM relative to control
[19] = target: Melatonin receptor type 1A (Homo sapiens) (UniProt P48039); test: Binding affinity to recombinant human MT1 receptor at 10 uM after 240 mins by scintillation counting analysis relative to control
Chain of Melatonin receptor type 1A (Homo sapiens) (P48039 whole entry): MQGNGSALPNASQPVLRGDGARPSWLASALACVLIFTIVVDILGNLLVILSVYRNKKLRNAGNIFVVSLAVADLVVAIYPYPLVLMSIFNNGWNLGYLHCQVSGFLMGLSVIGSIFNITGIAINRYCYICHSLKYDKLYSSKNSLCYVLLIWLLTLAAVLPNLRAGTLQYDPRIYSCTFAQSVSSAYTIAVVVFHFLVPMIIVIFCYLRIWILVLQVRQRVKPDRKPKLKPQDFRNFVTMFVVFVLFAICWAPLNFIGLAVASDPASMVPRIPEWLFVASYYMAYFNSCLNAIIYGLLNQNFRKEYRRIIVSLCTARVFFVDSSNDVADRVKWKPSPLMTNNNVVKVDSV

[20] = target: Vasoactive intestinal polypeptide receptor 1 (Homo sapiens) (UniProt P32241); test: Binding affinity to recombinant human VPAC1 receptor at 10 uM after 60 mins by scintillation counting analysis relative to control
[21] = target: Cathepsin D (Homo sapiens) (UniProt P07339); test: Binding affinity to human cathepsin D at 10 uM after 30 mins by fluorescence assay relative to control
[22] = target: Histamine H1 receptor (Homo sapiens) (UniProt P35367); test: Binding affinity to recombinant human histamine H1 receptor at 10 uM after 60 mins by scintillation counting analysis relative to control
[23] = target: Prostaglandin E2 receptor EP2 subtype (Homo sapiens) (UniProt P43116); test: Binding affinity to recombinant human EP2 receptor at 10 uM after 120 mins by scintillation counting analysis relative to control
[24] = target: Galanin receptor type 1 (Homo sapiens) (UniProt P47211); test: Binding affinity to recombinant human GAL1 receptor at 10 uM after 120 mins by scintillation counting analysis relative to control
[25] = target: Tyrosine-protein phosphatase non-receptor type 1 (Homo sapiens) (UniProt P18031); test: Binding affinity to recombinant human phosphatase 1B at 10 uM after 30 mins by fluorescence assay relative to control
Chain of Tyrosine-protein phosphatase non-receptor type 1 (Homo sapiens) (P18031 whole entry): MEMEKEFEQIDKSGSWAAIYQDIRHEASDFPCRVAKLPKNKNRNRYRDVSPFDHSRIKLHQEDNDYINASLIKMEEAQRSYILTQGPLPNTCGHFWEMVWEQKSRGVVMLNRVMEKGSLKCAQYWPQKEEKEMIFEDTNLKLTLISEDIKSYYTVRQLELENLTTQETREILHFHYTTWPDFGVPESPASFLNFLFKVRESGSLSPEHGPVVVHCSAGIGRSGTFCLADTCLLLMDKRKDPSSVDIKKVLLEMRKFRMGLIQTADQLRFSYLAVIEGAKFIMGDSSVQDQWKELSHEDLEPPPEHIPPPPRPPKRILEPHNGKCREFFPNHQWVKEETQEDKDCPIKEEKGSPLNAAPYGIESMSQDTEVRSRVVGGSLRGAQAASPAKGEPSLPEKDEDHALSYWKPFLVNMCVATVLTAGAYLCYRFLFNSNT

Salmonella typhimurium [26] = test: Mutagenicity in Salmonella typhimurium TA100 in presence of rat liver S9 fraction by Ames test; assay type: toxicity, organism-based; conditions: salmonella enterica subsp. enterica serovar typhimurium
[27] = target: Histamine H2 receptor (Homo sapiens) (UniProt P25021); test: Binding affinity to recombinant human histamine H2 receptor at 10 uM after 120 mins by scintillation counting analysis relative to control
[28] = target: Histone deacetylase 11 (Homo sapiens) (UniProt Q96DB2); test: Binding affinity to recombinant human HDAC11 at 10 uM after 30 mins by fluorescence analysis relative to control
Chain of Histone deacetylase 11 (Homo sapiens) (Q96DB2 whole entry): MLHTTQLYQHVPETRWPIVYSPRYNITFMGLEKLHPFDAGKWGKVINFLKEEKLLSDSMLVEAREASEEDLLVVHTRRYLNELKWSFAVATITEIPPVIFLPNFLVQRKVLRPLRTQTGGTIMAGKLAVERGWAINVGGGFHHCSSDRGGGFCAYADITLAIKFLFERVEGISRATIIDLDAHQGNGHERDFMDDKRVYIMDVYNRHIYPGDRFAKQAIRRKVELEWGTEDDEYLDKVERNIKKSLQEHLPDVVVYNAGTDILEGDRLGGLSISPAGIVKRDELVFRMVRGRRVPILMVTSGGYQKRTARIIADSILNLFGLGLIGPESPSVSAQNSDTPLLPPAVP

MAO-A = MAO-A (Homo sapiens, UniProt P21397); test: Binding affinity to human MAO-A at 10 uM after 20 mins by spectrophotometric analysis relative to control; conditions: read-out: Activity
Homo sapiens [29] = organism: Homo sapiens; test: Binding affinity to P2X receptor (unknown origin) at 10 uM relative to control
Homo sapiens [30] = organism: Homo sapiens; test: Binding affinity to human sigma receptor at 10 uM after 120 mins by scintillation counting analysis relative to control
Homo sapiens [31] = organism: Homo sapiens; test: Binding affinity to chloride channel (unknown origin) at 10 uM relative to control
[32] = target: Somatostatin receptor (Homo sapiens) (UniProt P35346+P30874+P31391+P30872+P32745); test: Binding affinity to somatostatin receptor (unknown origin) at 10 uM relative to control; assay type: protein assay
Salmonella typhimurium [33] = test: Mutagenicity in Salmonella typhimurium TA1535 in presence of rat liver S9 fraction by Ames test; assay type: toxicity, organism-based; conditions: salmonella enterica subsp. enterica serovar typhimurium
[34] = target: Beta-secretase 2 (Homo sapiens) (UniProt Q9Y5Z0); test: Binding affinity to BACE-2 (unknown origin) at 10 uM relative to control
Chain of Beta-secretase 2 (Homo sapiens) (Q9Y5Z0 whole entry): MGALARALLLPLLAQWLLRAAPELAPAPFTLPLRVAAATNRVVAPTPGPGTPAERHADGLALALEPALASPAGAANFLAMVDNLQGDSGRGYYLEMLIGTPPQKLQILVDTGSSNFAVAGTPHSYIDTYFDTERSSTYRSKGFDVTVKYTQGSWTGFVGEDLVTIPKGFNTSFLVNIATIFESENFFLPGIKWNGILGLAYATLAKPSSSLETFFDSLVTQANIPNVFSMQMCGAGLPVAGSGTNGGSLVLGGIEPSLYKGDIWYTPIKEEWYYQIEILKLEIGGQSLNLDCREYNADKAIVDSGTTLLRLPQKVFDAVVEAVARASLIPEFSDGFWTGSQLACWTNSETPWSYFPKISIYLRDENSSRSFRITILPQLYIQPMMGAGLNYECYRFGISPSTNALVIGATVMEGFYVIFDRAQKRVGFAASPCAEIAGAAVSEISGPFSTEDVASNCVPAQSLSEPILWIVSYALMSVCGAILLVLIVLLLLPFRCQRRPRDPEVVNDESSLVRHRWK

[35] = target: 3-hydroxy-3-methylglutaryl-coenzyme A reductase (Homo sapiens) (UniProt P04035); test: Binding affinity to HMG-CoA reductase (unknown origin) at 10 uM by relative to control

Chain of Muscarinic acetylcholine receptor M3 (Homo sapiens) (P20309 whole entry, looked up): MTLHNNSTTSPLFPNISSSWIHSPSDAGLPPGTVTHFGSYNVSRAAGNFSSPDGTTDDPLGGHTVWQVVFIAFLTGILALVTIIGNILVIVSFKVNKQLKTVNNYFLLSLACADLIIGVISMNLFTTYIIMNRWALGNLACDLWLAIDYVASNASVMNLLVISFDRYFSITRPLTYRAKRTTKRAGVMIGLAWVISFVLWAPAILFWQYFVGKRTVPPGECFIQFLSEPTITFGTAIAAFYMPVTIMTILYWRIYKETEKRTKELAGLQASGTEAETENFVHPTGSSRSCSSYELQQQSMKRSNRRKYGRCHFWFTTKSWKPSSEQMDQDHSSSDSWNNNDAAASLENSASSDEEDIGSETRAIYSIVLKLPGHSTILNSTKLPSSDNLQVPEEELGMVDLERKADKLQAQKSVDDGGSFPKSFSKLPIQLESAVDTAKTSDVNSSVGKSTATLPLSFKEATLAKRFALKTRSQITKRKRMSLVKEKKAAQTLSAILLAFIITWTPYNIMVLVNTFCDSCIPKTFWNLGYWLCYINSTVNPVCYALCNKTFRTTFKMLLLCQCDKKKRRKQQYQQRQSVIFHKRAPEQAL

`CCOc1c(Cl)cc(C(=O)Nc2ccc(C(=O)O)c(C)c2)cc1OC(C)C` showed an Activity [1] of less than 25%, an Activity [2] of less than 25% and an Activity [3] of less than 25%. The Activity [4] was less than 25%, the Activity (Caspase-8 (Homo sapiens)) was less than 25% and the Activity [5] was less than 25%. The Activity [6] was less than 25%, the Activity [7] was less than 25% and the Activity [8] was “<= 25%”. The Activity (Salmonella typhimurium [9]) was “Non-Toxic”, the Activity [10] was less than 25% and the Activity [11] was less than 25%. The Activity [12] was less than 25%, the Activity [13] was less than 25% and the Activity [14] was less than 25%. The Activity [15] was less than 25%, the Activity [16] was less than 25% and the Activity [17] was less than 25%. The Activity (Homo sapiens [18]) was less than 25%, the Activity [19] was less than 25% and the Activity [20] was less than 25%. It also gave an Activity [21] of less than 25%, an Activity [22] of less than 25% and an Activity [23] of less than 25%. The Activity [24] was less than 25%, the Activity [25] was less than 25% and the Activity (Salmonella typhimurium [26]) was “Non-Toxic”. For the same compound, the Activity [27] was less than 25%, the Activity [28] was less than 25% and the activity at 20 min, 10 µM (MAO-A) was no more than 25%. The Activity (Homo sapiens [29]) was less than 25%, the Activity (Homo sapiens [30]) was less than 25% and the Activity (Homo sapiens [31]) was less than 25%. The Activity [32] was less than 25%, the Activity (Salmonella typhimurium [33]) was “Non-Toxic” and the Activity [34] was less than 25%. The Activity [35] was less than 25%.
